The structures appear in SMILES notation.

Results on seven compounds are retold here after patent EP2373670B1, “NOVEL AMINO SUBSTITUTED C-GLYCOSIDE DERIVATIVES AND USE THEREOF AS COSMETIC” (L'Oréal, priority 2008, dated 2010).

Assay type in all cases: cell-based
Assay [1] deals with kératinocytes. Description: Synthesis of sulfated glycosaminoglycans (radioactive label incorporation) in keratinocyte cultures. Particulars: keratinocytes, second experiment, n=2.
Assay [2] relates to fibroblastes dermiques humains normaux. In words: Synthesis of sulfated glycosaminoglycans (radioactive label incorporation) in fibroblast cultures. To be noted: fibroblasts, second experiment, n=2; for activity at 100 µM / activity at 1000 µM: Fibroblast, control = 100, read-out: % (synthèse des glycosaminoglycanes par rapport au témoin).
For assay [3] the test system is unchanged. Described as above. Particulars: for augmenter la synthèse des GAGs sulfatés: summary in words of the results on fibroblasts and keratinocytes. From the text: (§1) Etude de l'effet de dérivés C-glycosides sur la synthèse des glycosaminoglycannes sulfatés sur fibroblastes et sur kératinocytes : • L'étude est faite par mesure de l'incorporation de glucosamine radioactive dans la matrice néosynthétisée par des cultures de fibroblastes dermiques humains normaux ou par des kératinocytes. L'incorporation de glucosamine radioactive indique une néosynthèse spécifique de glycosaminoglycannes via une incorporation de la forme acétylée de cette glucosamine.
Les cultures de fibroblastes sont effectuées selon les méthodes classiques de culture cellulaire, à savoir en milieu DMEM vendu par la société Gibco, en présence de L-glutamine (2 mM), de pénicilline (50 Ul/ml) et de 10% de sérum de veau foetal (Gibco).
(§2) Les fibroblastes et les kératinocytes ont été cultivés en plaques de 96 puits. A confluence, le milieu de culture a été remplacé par du milieu de culture adéquat contenant ou non (témoin) le composé à tester ou la référence, puis les cellules ont été incubées pendant 48 heures. Le marqueur radioactif 35 S-sulfate a été ajouté (40 µCi final) et les cellules ont été incubées pendant 24 heures supplémentaires. Toutes les conditions ont été réalisées 3 fois.
(§3) Les glycosaminoglycanes de la matrice extracellulaire ont été extraits avec un volume tampon chaotropique (Tris/HCl 50 mM, guanidine 4 M, EDTA 5 mM, pH 8,0). Les GAGs sulfatés ont été purifiés par chromatographie d'échanges d'ions : absorption des molécules anioniques sur billes de Q-Sépahrose dans des conditions de forte stringence, désorption des molécules peu et moyennement anioniques avec uns solution urée 6 M NaCl […], puis lavages. La radioactivité incorporée dans les molécules […] restées sur le support (GAGs majoritairement) a été mesurée par scintillation liquide. Les résultats sont évalués par apport à un témoin constitué par des cellules n'ayant pas été traitées avec un composé de formule (I). Un témoin positif (TGFβ à 10 ng/ml) connu pour stimuler la synthèse des GAGs est introduit dans le test effectéu sur fibroblastes comme référence positive. Un témoin positif (CaCl2 à 1,4 mM) connu pour stimuler la synthèse des GAGs est introduit dans le test effectué sur kératinocytes comme référence positive.
(§4) Les résultats sont exprimés en pourcentage de variation de la synthèse des glycosaminoglycanes par rapport au témoin.
(§5) On a effectué 3 essais pour le composé testé.
(§6) Les comparaisons des résultats obtenus pour un composé testé ont été réalisés à l'aide du test de Student.
(§7) L'écart type de la moyenne (esm) a été calculé selon la relation suivante : esm = écart type/((n))^(1/2) [formula] • n étant le nombre d'essais effectués.
(§8) Les valeurs mesurées sont données en coups par minute (cpm) • n : nombre d'essais effectués • p : intervalle de confiance • esm : écart type de la moyenne

Assay [4] has as its system kératinocytes. Description: Synthesis of sulfated glycosaminoglycans (radioactive label incorporation) in keratinocyte cultures. Particulars: keratinocytes, n=3.
From the text: as §1
Les cultures de kératinocytes sont effectuées en milieu Keratinocyte-SFM vendu par la société Gibco , en présence d'EGF (Epidermal Growth Factor) (0,25 ng/ml), d'extrait pituitaire (25 µg/ml) et de gentamycine (25 µg/ml).
as §2, §3, §4, §5, §6, §7, §8

The mark [5] stands for this setting: Keratinocyte, 0,1 mM, control = 100, read-out: % (synthèse des glycosaminoglycanes par rapport au témoin).
The mark [6] stands for this setting: Keratinocyte, 1 mM, control = 100, read-out: % (synthèse des glycosaminoglycanes par rapport au témoin).

For the compound `CNC(C)C[C@@H]1OC[C@@H](O)[C@H](O)[C@H]1O` (stereo partly drawn) [1-[2-(méthylamino)-propyl]-C-β-D-xylopyranose], the activity at 100 µM with kératinocytes [1] (setting [5]) came to 93%; in assay [2] (0,1 mM) it was 102%. Besides, the values for the activity at 1000 µM (with kératinocytes [1] (setting [6]); in assay [2] (1 mM)) were 139% and 106%, respectively. For the same compound, the Valeur moyenne with kératinocytes [1] (0,1 mM) came out at 11922 cpm; in the assay with kératinocytes [1] (1 mM), 17916 cpm; in assay [2] (0,1 mM), 2569 cpm; in assay [2] (1 mM), 2659 cpm.
Consider `CCCNC(C)C[C@@H]1OC[C@@H](O)[C@H](O)[C@H]1O` (some centres unmarked) [Composé de l'exemple 11], for which the activity at 0.1 µM in the assay on kératinocytes [1] (Keratinocyte, 0,1 µM, control = 100, read-out: % (synthèse des glycosaminoglycanes par rapport au témoin)) was determined as 112%. In addition, in the assay with kératinocytes [1] (Keratinocyte, 1 µM, control = 100, read-out: % (synthèse des glycosaminoglycanes par rapport au témoin)), the activity at 1 µM is 351%. In addition, the Valeur moyenne in the assay with kératinocytes [1] (0,1 µM) was 14408 cpm; with kératinocytes [1] (1 µM) it was 45124 cpm; in assay [2] (0,1 mM), 3197 cpm; in assay [2] (1 mM) it was 11109 cpm. In addition, in assay [2] (0,1 mM), the activity at 100 µM stood at 127%. For the same compound, in assay [2] (1 mM), the activity at 1000 µM stood at 441%. For the same compound, the “augmenter la synthèse des GAGs sulfatés” value in assay [3] is “très efficaces”.
`CCOC(=O)C(Cc1ccccc1)NC(C)CC1OCC(O)C(O)C1O` [Composé de l'exemple 5, chlorhydratede l'ester éthyliquede l'acide 2R-[1-méthyl 2-(C-β-D-xylopyranoside) éthyl]-amino 3-phényl propanoïque]: in assay [3] (Fibroblast, fibroblasts, 0,37 mM, control = 100, n=3, read-out: % (synthèse des glycosaminoglycanes par rapport au témoin)), the activity at 370 µM amounted to 616%. For the same compound, the activity at 1110 µM in assay [3] (Fibroblast, fibroblasts, 1,11 mM, control = 100, n=3, read-out: % (synthèse des glycosaminoglycanes par rapport au témoin)) stood at 605%. Besides, the Valeur moyenne is recorded as 14373 cpm in assay [3] (fibroblasts, 0,37 mM, n=3); 14111 cpm in assay [3] (fibroblasts, 1,11 mM, n=3); 21975 cpm in the assay on kératinocytes [4] (66 µM); 29007 cpm in the assay with kératinocytes [4] (200 µM). The “augmenter la synthèse des GAGs sulfatés” value in assay [3] was “très efficaces”. The activity at 66 µM in the assay on kératinocytes [4] (Keratinocyte, 66 µM, control = 100, read-out: % (synthèse des glycosaminoglycanes par rapport au témoin)) is 438%. The activity at 200 µM in the assay on kératinocytes [4] (Keratinocyte, 200 µM, control = 100, read-out: % (synthèse des glycosaminoglycanes par rapport au témoin)) came out at 570%.
On to `CCCCCCNC(C)C[C@@H]1OC[C@@H](O)[C@H](O)[C@H]1O` (some centres unmarked) [Composé de l'exemple 10], for which the activity at 100 µM in the assay on kératinocytes [1] (setting [5]) is 427%; in assay [2] (0,1 mM), 553%. In addition, the activity at 1000 µM came to 255% in the assay on kératinocytes [1] (setting [6]) and 595% in assay [2] (1 mM). The Valeur moyenne with kératinocytes [1] (0,1 mM) was found to be 54897 cpm; with kératinocytes [1] (1 mM) it was 32733 cpm; in assay [2] (0,1 mM), 13925 cpm; in assay [2] (1 mM) it was 14992 cpm. Besides, the “augmenter la synthèse des GAGs sulfatés” value in assay [3] is “très efficaces”.
For the compound `CC(N)C[C@@H]1OC[C@@H](O)[C@H](O)[C@H]1O` (stereo partly drawn) [1-[2-amino-propyl]-C-β-D-xylopyranose], the activity at 100 µM turned out to be 113% with kératinocytes [1] (setting [5]) and 91% in assay [2] (0,1 mM). The figures for the activity at 1000 µM (in the assay on kératinocytes [1] (setting [6]); in assay [2] (1 mM)) were 225% and 139%, respectively. For the same compound, the Valeur moyenne with kératinocytes [1] (0,1 mM) is 14465 cpm; in the assay with kératinocytes [1] (1 mM) it was 28870 cpm; in assay [2] (0,1 mM), 2301 cpm; in assay [2] (1 mM) it was 3507 cpm.
Regarding `[Ca+2].[Cl-].[Cl-]` [CaCl2, reference compound], the “% (synthèse des glycosaminoglycanes par rapport au témoin)” value with kératinocytes [4] (positive control CaCl2 at 1,4 mM, control = 100, 1400 µM) amounted to 117%. Further, the Valeur moyenne in the assay on kératinocytes [4] (positive control CaCl2 at 1,4 mM) is recorded as 5273 cpm.
On to `CC(C[C@@H]1OC[C@@H](O)[C@H](O)[C@H]1O)NCCCO` (stereo partly drawn) [1-[2-(3-hydroxy-propylamino)-propyl]-C-β-D-xylopyranose], for which the activity at 100 µM in the assay on kératinocytes [1] (setting [5]) is 99%; in assay [2] (0,1 mM) it was 113%. Also, the figures for the activity at 1000 µM (in the assay with kératinocytes [1] (setting [6]); in assay [2] (1 mM)) were 145% and 121%, respectively. The Valeur moyenne in the assay with kératinocytes [1] (0,1 mM) was found to be 12660 cpm; in the assay with kératinocytes [1] (1 mM) it was 18691 cpm; in assay [2] (0,1 mM) it was 2856 cpm; in assay [2] (1 mM), 3039 cpm.
